From US20220133894A1, “BISPHOSPHONATE-LINKED COMPOUNDS” (OREGON HEALTH & SCIENCE UNIVERSITY, priority 2019, published 2022)

Assays:
PC3-M cells = assay: three-day MTT cell growth assay, chemotherapy with or without KBU2046; type: cell-based, human; settings: 10 μM KBU2046, 3 day growth assay, androgen independent PC3-M cells
Description: FIG. 1A depicts the effect of chemotherapy on the growth of androgen independent PC3-M PCa cells in vitro. Data are the mean±SEM (N=3 replicates) of cell viability in a 3 day growth assay in the presence of 10 μM KBU2046 or vehicle (control) treated with docetaxel or cabazitaxel. FIG. 1B depicts the effect of chemotherapy on the growth of androgen independent PCa cells in vivo. Mice received subcutaneous implants of PC3-M cells, were monitored until tumors were detectable (250 mm^3), and then treated daily with oral 80 mg KBU2046/kg (46) or vehicle (CO) and with weekly intraperitoneal docetaxel (doc) at 0 or 20 mg/kg, beginning on day 1, and tumor size measured. Data are mean±SEM, with N=20 mice per cohort.
To assess the impact of cytotoxic chemotherapy on PCa growth kinetics seven-day soft agar colony formation assays and three-day MTT cell growth inhibition assays were performed as described by us (Pavese et al., Cancer Lett 352, 179-186 (2014)). MTT assays were in replicates of N=3, and were repeated, soft agar assays were in replicates of N=2 and are presented as mean number of colonies, expressed as percent of untreated controls.

[1] = tested on: prostate specific antigen (PSA); assay: PSA expression by qRT/PCR in LNCaP cells; type: cell-based, human; settings: LNCaP cells in androgen depleted media
Description: Cells were cultured in media depleted of androgen and after a washout of 72 hrs were treated with the synthetic androgen R1881, KBU2046, enzalutamide and/or vehicle (control), and resultant effects upon induction of the androgen-responsive gene, prostate specific antigen (PSA) were measured (FIG. 3A).
LNCaP or VCaP cells cultured in hormone free media were treated with R1881 (R), KBU2046 (46) and/or enzalutamide (E). (FIGS. 3A and 3B) Effects on AR-responsive gene expression. PSA expression was measured by qRT/PCR, normalized to GAPDH and expressed as a percent of control cells (N=3 replicates); * denotes P<0.05 for groups separated by bar. (FIGS. 3C and 3D) Effects on cell growth. Three day growth assays were performed. Data are the number of viable cells, expressed as % of control (N=3 replicates); * P<0.05 compared to control. (E) Effects on AR activation. Western blots of nuclear (N) and cytoplasmic (C) preparations of cell extracts were probed for AR, laminin 1 or α-tubulin. (FIGS. 3F and 3G) Effects on tumor outgrowth after androgen deprivation therapy. LNCaP/AR-luc cells were implanted subcutaneously (N=6 mice/cohort) or orthotopic (N=15 mice/cohort were implanted; N=5 yielded tumors) into castrate mice, treatment with KBU2046 began as noted, and weekly IVIS imaging performed. Data are tumor size, expressed as luminescence intensity. All data are expressed as mean±SEM.
RNA was isolated and qRT/PCR performed as previously described by us (Ding et al., J Biomol Tech 18, 321-330 (2007)). Resultant data were analyzed using the 2^−ΔΔt method (Livak et al., Methods 25, 402-408 (2001)), normalized to GAPDH, for the following primer/probe sets (ABI) PSA (Hs02576345_m1) and GAPDH (Hs99999905_m1). Assays were performed in triplicate, and were repeated.

Raf1 = assay: Western blot of Raf1 phosphorylation in RANKL treated osteoclast cells; type: cell-based, mouse; settings: 10 μM KBU2046, RANKL treated RAW 267.4 cells, time-dependent
Excerpt: To examine this paradigm we first evaluated whether KBU2046 would inhibit Raf1 phosphorylation in osteoclasts. After treatment with RANKL, RAW 267.4 cells differentiate into mature osteoclasts. Upon maturation osteoclast become multinucleated, express tartrate resistant acid phosphatase (TRAP), and have the capacity to form actin rings that create an occluded cavity in which bone is degraded. KBU2046 inhibits phosphorylation of Raf1's activation motif in RANKL treated RAW 267.4 osteoclast cells, and does so in a time-dependent manner (FIG. 4A). In osteoclasts Raf1 is known to phosphorylate MEK1/2, in turn phosphorylating ERK1/2 (Bradley et al., J Cell Biochem 104, 1439-1451 (2008)), with the latter acting to stimulate osteoclast differentiation and bone resorptive activity (He et al., PLoS One 6, e24780 (2011); and Nakamura et al., J Bone Miner Res 18, 1198-1205 (2003)).
FIG. 4 represents the KBU2046 inhibition of osteoclast function. FIG. 4A compares effects on Raf1 activation. […] RAW 267.4 cells were plated onto Osteo Assay plates, treated with RANKL for 6 days and with KBU2046 (or vehicle for controls) as indicated and bone surface area quantified. Data are the mean±SEM (N=3 replicates) of bone surface area, expressed as the percentage of control cells; * denotes P<0.05 compared to control. […]

PC3-luc cells = assay: PCa intracardiac injection model, bone destruction by CT and survival; type: in vivo, mice; settings: oral 150 mg KBU2046/kg daily; intraperitoneal ZA 100 μg/kg weekly; CT

## O=C1c2ccccc2OCC1c1ccc(F)cc1 (centres unmarked) [KBU2046, 3-(4-fluorophenyl)chroman-4-one]
PC3-M cells
  effect of KBU2046 on the ability of docetaxel or cabazitaxel to inhibit cell growth: did not affect
[1]
  PSA expression: no significant effect
Raf1
  phosphorylation of Raf1's activation motif: inhibits
PC3-luc cells
  improvement of femur bone density compared to control: 22±2.4%
  inhibition of bone destruction in the mandible compared to control: 33±4.2%
